Data on one compound can be found in publication PMC9299640, “Incorporation of β‐Alanine in Cu(II) ATCUN Peptide Complexes Increases ROS Levels, DNA Cleavage and Antiproliferative Activity” (Chemistry (Weinheim an Der Bergstrasse, Germany), 2021).

The test system of assay [1] is NCI-H460 (non-small cell lung carcinoma). Nature of the assay: Antiproliferative activity, sulforhodamine B (SRB) assay. It is filed as cell-based, human. Particulars: exposure 72 h, 3-fold dilutions, α-MEM + 5% fetal calf serum, 37 °C, mean ± SD of at least three independent experiments. How it is done: (§1) The antiproliferative activity of selected Cu(II) ATCUN complexes was investigated towards different tumor cell lines (HCT116, NCI-H460, SiHa and SW480 cells) and expressed as the IC50 values.
(§2) Table S13. Accumulation of Cu in HCT116 cells after 24 h incubation with Cu-GGH, 1, 3, 4 and CuCl2 (70 µM) as determined by ICP-MS (n = 3), and cytotoxic activity in human cancer cell lines HCT116, NCI-H460, SiHa and SW480 expressed as the IC50 ± SD (in µM) as well as by the residual viable cells after treatment with 70 μM of the respective compound (%) as determined by the SRB assay (exposure time 72 h). accumulated Cu IC50 values […]
(§3) a – indicates no antiproliferative activity observed after treatment with the respective compound at 70 μM for 72 h.
(§4) S-12.1 Determination of IC50 values against HCT116, NCI-H460, SiHa and SW480 […]
(§5) HCT116, SW480 and NCI-H460 cells were supplied by ATCC, while SiHa cells were supplied by Dr. David Cowan, of the Ontario Cancer Institute, Canada. The cells were grown in α-MEM (Life Technologies) supplemented with 5% fetal calf serum (Moregate Biotech) at 37 °C in a humidified incubator with 5% CO2. […]
(§6) in 96-well plates and left to settle for 24 h. Compounds were added as water solutions to the plates in a series of 3-fold dilutions for 72 h before the assay was terminated by addition of 10% trichloroacetic acid (Merck Millipore) at 4 °C for 1 h. Cells were stained […]
(§7) with 0.4% sulforhodamine B (Sigma-Aldrich) in 1% acetic acid for 30 min in the dark at room temperature and then washed with 1% acetic acid to remove unbound dye. The stain was dissolved in unbuffered Tris base (10 mM, Serva) for 30 min on a plate shaker in the dark and quantified on a BioTek EL808 microplate reader at an absorbance of 490 nm with a reference wavelength of 450 nm to determine the percentage of cell-growth inhibition by determining the absorbance of each sample relative to a negative (no inhibitor) and a no-growth control (day 0). IC50 values were calculated with SigmaPlot 12.5 (Systat Software Inc.) using a three-parameter logistic sigmoidal dose−response curve between the calculated growth inhibition and the compound concentration. The presented IC50 values are the mean of at least three independent experiments, where 10 concentrations were tested in duplicate for each compound.
(§8) Ventures), by diluting with a matrix-matched solution with regard to HNO3 and Tm concentration, producing calibration standards with concentrations of 0.5, 1, 3, 5, 7, 10, […]
(§9) The measured Cu concentrations in the cell accumulation samples were in the range of 27–82 μg/L. The reported values are the means of at least three independent accumulation experiments conducted in triplicates with blank wells for each substance to account for unspecific binding of the Cu(II) complexes to the plastic of the well plates.
(§10) Accumulation values have been corrected by subtracting the average amount Cu determined in the cell-free wells.
(§11) Calibration curves for Cu were prepared with concentrations ranging from 0.5–100 µg/L. The limit of detection (LOD) was defined as 3 times the random error in the y-direction (Sy/x) of the calibration curve divided by the slope of the calibration curve. The limit of quantification (LOQ) was defined as 10 times the random error in the y-direction (Sy/x) of the calibration curve divided by the slope of the calibration curve.42 The LOD was determined for Cu as 1.8 μg/L and the LOQ was 5.95 μg/L.

Assay [2] relates to HCT116 (colorectal carcinoma). Described as above. It is filed as cell-based, human. The procedure: as §1, §2, §3, §4, §5, §6, §7, §8, §9, §10, §11
Assay [3] concerns SiHa (cervical carcinoma). Described as above. The class given is cell-based, human. How it is done:
as §1, §2, §3, §4, §5, §6, §7, §8, §9, §10, §11

Assay [4] relates to SW480 (colon adenocarcinoma). The description is as above. It is filed as cell-based, human. The procedure:
as §1, §2, §3, §4, §5, §6, §7, §8, §9, §10, §11

A short description of assay [5]: Detection of hydroxyl radicals (TPA) and hydrogen peroxide (PBSF) by fluorescence spectroscopy. It is filed as biochemical. Conditions: 40 μM complex or CuCl2, ascH− 1 mM, MOPS 50 mM pH 7.4, TPA 0.5 mM or PBSF 25 μM, up to 3.5 h, r.t. How it is done:
To similarly confirm increased DNA cleavage as a result of enhanced ROS formation when introducing β‐Ala2 in the ATCUN motif, the ^•OH and H2O2 production was monitored. To follow the evolution of these species, the oxidation of terephthalate (TPA → HO‐TPA) by ^•OH[40] and the perhydrolysis of pentafluorobenzenesulfonyl fluorescein (PBSF) into fluorescein by H2O2 [40] were analyzed by fluorescence spectroscopy. In Figure 5, the kinetics of ^•OH and H2O2 production by complexes 1 (Gly2), 3 (β‐Ala2), 4 (β‐Ala2; Lys1/4) and CuCl2 are depicted.
Figure 5 Kinetics of ^•OH (left) and H2O2 (right) production for 1, 3, 4 and CuCl2 (40 μM) in the presence of ascH^− (1 mM) in MOPS buffer (50 mM, pH 7.4) monitored by fluorescence evolution of HO‐TPA (λ ex 320 nm, λ em=428 nm) from TPA (0.5 mM), and fluorescein (λ ex=485 nm, λ em=513 nm) from PBSF (25 μM).
S-8 Detection of hydroxyl radicals and hydrogen peroxide
For the identification of generated ROS by Cu(II) ATCUN complexes during DNA cleavage, gel electrophoresis was used for a ROS quenching experiment (Figure 4). Detection of hydroxyl radicals and hydrogen peroxide generated by metallonucleases was additionally performed by fluorescence spectroscopy.
The fluorescent dyes disodium terephthalate (TPA) and pentafluorobenzenesulfonyl fluorescein (PBSF) were used for the detection of hydroxyl radicals and hydrogen peroxide, respectively. […]

Where [6] appears, read: after treatment with 70 μM, 72 h.
Setting [7] is: exposure 72 h, 3-fold dilutions, α-MEM + 5% fetal calf serum, 37 °C, mean of at least three independent experiments.

In general, IC50 refers to the midpoint of a concentration-inhibition curve. In the case of `[Cl][Cu][Cl]` [CuCl2, reference compound], the 50% inhibitory concentration (IC50) in assay [1] was above 70 µM; in assay [2] (exposure 72 h, 3-fold dilutions, α-MEM + 5% fetal calf serum, 37 °C, Cu(II):peptide 1:1.05, mean ± SD of at least three independent experiments), above 70 µM; in assay [3] (setting [7]), above 70 µM; in assay [4] (setting [7]) it was above 70 µM. Besides, the “residual viable cells HCT116” value in assay [2] (setting [6]) was 87 ± 6%. Besides, in assay [3] (setting [6]), the “residual viable cells SiHa” value turned out to be 93 ± 22%. In addition, the “residual viable cells SW480” value in assay [4] (setting [6]) is listed as “– (indicates no antiproliferative activity observed after treatment with the respective compound at 70 μM for 72 h)”. In addition, in assay [5], the “catalytic ROS generation (•OH and H2O2 production, in words)” value is “highest ^•OH and H2O2 formation”.
